Values after ≈ are worked out from the molar mass of the structure shown. Values joined by “and” are separate entries in the source; they are usually repeats but may differ in a detail not shown here. Equal values may be shown once. Read-outs that look alike come from different tables or passages of the source.
Assays:
Format in all cases: cell-based, human
[1] = test system: proliferating cell nuclear antigen (PCNA) expression in Ca Ski cells; assay: Q-PCR analysis of PCNA expression; settings: 20–100 μM for 24 h; 60 μM for 0–24 h; relative to untreated control, normalized with GAPDH
Method: A total of 1 × 10^6 Ca Ski cells were seeded into 60 mm culture dishes and incubated for 24 h for attachment. Cells were then treated without or with 20-100 μM of MAA for 24 h. For time-course study, cells were treated with 60 μM MAA for 0, 3, 6, 12, and 24 h. After specific treatment period, cells were harvested and total RNA was isolated using the RNAqueous-4PCR kit (Applied Biosystem) according to the manufacturer's directions. The RNA concentration was determined using spectrophotometry. The gene expression of PCNA was assessed by one-step SYBR Green relative real-time PCR (Rotor-Gene System, Qiagen) and normalized to GAPDH reference control amplifications. The primer sequences for PCNA and GAPDH were forward [NT], reverse [NT] and forward [NT], reverse [NT], respectively. The PCR amplification reactions were carried out in a total volume of 25 μL for 30 cycles of 45 seconds at 95°C, 45 seconds at 56°C, and 120 seconds at 72°C. The mean fluorescence threshold value (CT) of each sample was obtained according to the manufacturer's guidelines and used to determine ΔCT values where by ΔCT = CT target gene (PCNA) - CT reference gene (GAPDH).

Ca Ski cells [2] = assay: MTT recovery assay (72 h exposure then 72 h recovery)
Method: In order to determine whether the cytotoxicity is cytostatic or cytocidal, a recovery assay was conducted whereby after the 72 h incubation (exposure period), the medium containing the compound was removed, washed with medium, and replaced with medium alone for a recovery period of 72 h followed by addition of MTT and measurement as described earlier. A sample is showing cytostatic effect when the IC50 in the recovery assay was higher than that of the exposure assay. Whereas for cytocidal effect, the IC50 obtained in the recovery assay is similar to that shown by the exposure assay.

Ca Ski cells [3] = assay: Trypan blue exclusion (TBE) assay, viable cell count; settings: 60 μM
Method: Ca Ski cells were cultured at a density of 1 × 10^6 cells/mL in 60 mm culture dishes. After 24 h of attachment, the cells were treated without or with 60 μM of MAA for different time periods. After 6–72 h, the cells were harvested, washed with medium, and the cell pellets were resuspended in medium. After incubation in 0.4% trypan blue for 5 min, viable cells were counted using a hemocytometer. At the indicated time point straight before the cells were harvested, the cells were visualized under an inverted phase-contrast microscope (Motic) to observe the cell morphological changes upon treatment, and photographs were taken.

[4] = test system: Ca Ski cervical cancer cells; assay: MTT assay, 72 h exposure, Ca Ski cells; settings: for decrease in cell viability: Ca Ski cells, 3.125–100 μg/mL
Method: (§1) The human cervical epidermoid carcinoma cell line (Ca Ski, ATCC number CRL-1550) and human fibroblast cell line (MRC 5, ATCC number CCL-171) were purchased from the American Type Culture Collection (ATCC, USA). Ca Ski cells were maintained in RPMI 1640 Medium (Sigma) and MRC 5 cells in EMEM (Eagle Minimum Essential Medium) (Sigma). The media were supplemented with 10% (v/v) heat-inactivated fetal bovine serum (PAA Lab, Austria), 100 μg/mL streptomycin and 100 unit/mL penicillin (PAA Lab, Austria), and 50 μg/mL amphotericin B (PAA Lab, Austria). The media were filter-sterilized using a 0.22 μm filter membrane (Minisart, Sartorius stedim). The cells were cultured in 5% CO2 incubator at 37°C in a humidified atmosphere. MTT assay was modified from Mossmann and used to evaluate the cytotoxic effects of each fraction and compounds. MTT assay is widely used to assess the viability and/or the metabolic state of the cells based on mitochondrial respiratory activity. A total of 5 × 10^3 cells were seeded into each well of 96-well plates and allowed to adhere for 24 h. After 24 h, the cells were treated with the fractions or compounds in the final concentrations ranging from 3.125 to 100 μg/mL. Each concentration was performed in triplicate well. Control cells were treated with vehicle DMSO to get the final concentration of 0.5% v/v. The cells were then incubated for 72 h. After 72 h exposure period, MTT (5 mg/mL) was added and further incubated for 4 h at 37°C. The medium was then aspirated and the crystals formed were dissolved in 150 μL DMSO. The absorbance was measured at 570 nm against the reference wavelength of 650 nm. The percentage of viability was calculated based on the formula: Viability (%) = (absorbance of treated cells/absorbance of control cells) × 100%. The IC50 (concentration that reduces cell viability to 50%) was derived from the dose-response curves.

[5] = MTT assay, 72 h exposure, Ca Ski cells; settings: human
Method: as §1

MRC 5 normal cells = assay: MTT assay, 72 h exposure, MRC 5 normal cells; settings: for IC50: Homo sapiens, MRC5, 72 h; for fold higher IC50 against MRC 5 compared to CPT: MRC 5, relative to camptothecin
Method: as §1, with “curves. MRC 5 cell line was used as a normal cell model for the calculation of selectivity index (SI). SI value was calculated by dividing the IC50 value of the MRC 5 cell line with the IC50 value of Ca Ski cell line.” for “curves.”

Ca Ski cells [6] = assay: Cell cycle analysis by PI staining and flow cytometry; settings: 60 μM
Method: The cell cycle distribution was assessed using propidium iodide (PI) staining. Ca Ski cells were seeded in 60 mm culture dishes (1 × 10^6 cells) and left 24 h for attachment. The cells were then treated without or with 60 μM MAA for 12–72 h. After the designated treatment period, both adherent and floating cells were harvested and washed twice with PBS. Cell pellets were resuspended in 100 μL of PBS and fixed with absolute ethanol and stored at −20°C for 24 h. Fixed cells were washed twice with PBS, and the cell pellets were incubated in a buffer containing 50 μg/mL PI, 0.1% sodium citrate, 0.1% Triton-X-100, and 100 μg/mL RNase A for 45 min in the dark at room temperature. The percentage of cells in the sub-G1, G1, S, and G2/M-phases of the cell cycle was then analyzed using a FACS Calibur flow cytometer (Beckton Dickinson). Data were acquired and analyzed using Cell Quest software (Becton Dickinson).

[7] = Homo sapiens, Ca-Ski, 72 h, MTT, 72 h exposure

SMILES	expression of PCNA [1]	IC50 in the recovery assay compared with the exposure assay (Ca Ski cells [2])	effect on cell proliferation (viable cell count) (Ca Ski cells [3]; 6 h)	effect on cell proliferation (viable cell count) (Ca Ski cells [3]; 12 h and 24 h)	decrease in cell viability ([4]; 72 h)	IC50 [4, 7]	selectivity ratio at 72 h ([5]; Ca Ski cervical carcinoma cells vs MRC 5 fibroblast cells, Ca Ski vs MRC 5, read-out: selectivity index (IC50 MRC 5 / IC50 Ca Ski), times more cytotoxic to Ca Ski cells compared to MRC5)	IC50 (MRC 5 normal cells; MTT, 72 h exposure) [µg/mL]	fold higher IC50 against MRC 5 compared to CPT (MRC 5 normal cells)	proportion of S-phase and G2/M-phase cells versus untreated cells (Ca Ski cells [6]; 12 and 24 h)	increase of hypodiploid (sub-G1) cells (Ca Ski cells [6]; after 72 h)	IC50 ([4]; MTT, 72 h exposure) [µM]	IC50 for Ca Ski cells ([4]; MTT, 72 h exposure) [µg/mL]	selectivity ratio at 72 h [5]	IC50 on MRC 5 (MRC 5 normal cells; MTT, 72 h exposure) [µg/mL]
CC(C)=CCCC(C)C1CCC2(C)C3CCC4C(C)(C(=O)O)C(OC5OCC(O)C(O)C5O)CC(O)C45CC35CCC12C [MAA, 1α, 3β-dihydroxy-cycloart-24-ene-28-oic acid 3-O-[α-L-arabinopyranoside]]	significantly decreased	almost the same to the exposure assay	modestly inhibited the cell proliferation	prominent antiproliferative effect	20–95%	19.2 µM and 11.6 µg/mL	~8	94.32 ± 0.75 (≈ 156 µM)	approximately 20 fold	significantly higher	about 20 fold				
CC(C)=CCCC(C)C1CCC2(C)C3CCC4C(C)(C(=O)O)C(OC5OCC(O)C(O)C5O)CC(O)C45CC35CCC12C [MAX, 1α, 3β-dihydroxy-cycloart-24-ene-28-oic acid 3-O-[β-D-xylopyranoside]]					6–90%				~17 fold			33.3	20.13 ± 0.21	~4	79.25 ± 0.66 (≈ 131 µM)
CC[C@@]1(O)C(=O)OCc2c1cc1n(c2=O)Cc2cc3ccccc3nc2-1 [camptothecin, reference compound]						2.51 ± 0.33 µg/mL		4.74 ± 0.33 (≈ 13.6 µM)							

— paper PMC3235747, “Bioassay-Guided Isolation of Cytotoxic Cycloartane Triterpenoid Glycosides from the Traditionally Used Medicinal Plant Leea indica” (Evidence-based Complementary and Alternative Medicine : eCAM, 2011)
